Read-outs that look alike come from different tables or passages of the source.
Molecular target: MAO-A (Rattus norvegicus, UniProt P21396)
Test: in vivo
Conditions: for MAO-A activity, brain / MAO-A activity, intestine / MAO-A activity, liver: two weeks; for MAO-A inhibition in the intestine: three lowest doses 0.02-0.1 mg/kg/day (salt); for inhibition at 0.02 mg/kg/day / inhibition at 0.05 mg/kg/day / inhibition at 0.1 mg/kg/day / inhibition at 0.2 mg/kg/day / inhibition at 0.4 mg/kg/day / inhibition at 0.8 mg/kg/day: rat
From the text: ALZET® osmotic minipumps are described in Perkins L, Peer C, and Murphy-Hackley P. “Chapter 21: The use of mini-osmotic pumps in continuous infusion studies” in Handbook of Pre-Clinical Continuous Intravenous Infusion, (Smith & Healing, eds., Taylor and Francis, 2000), the contents of which are incorporated herein by reference.
The osmotic minipumps were inserted subcutaneously with a single surgical procedure: after clipping the fur from the dorsal area and cleaning the skin with antiseptic skin preparation, about 1 cm long incision was made on the dorsum of the animal, midway between both scappulae. The pump was placed along the axis of the body to one side of the backbone. The incision was positioned about 1-2 cm caudal to the estimated caudal end of the minipump when it is in place.
After two weeks of treatment the animals were sacrificed. From each rat, brain (half) and a part of liver were dissected and frozen. The intestine was excised about ½ cm below the stomach about 1-2 cm long, washed with sucrose 0.32 Molar and frozen at −70° C.
Tissue homogenates were pre incubated (37° C.) in the presence of clorgyline or deprenyl to inhibit the activity of MAO-A or MAO-B respectively. For MAO-B determination, samples were incubated for 20 minutes with C^14 PEA 10 μM and for MAO-A determination samples were incubated 30 minutes with C^14 −5HT 100 μM as substrate Termination of the reaction was done by acidification. The labeled metabolites were extracted into toluene:ethyl acetate, and counted in a β counter.

[1] = po, read-out: Percent of MAO-A inhibition, brain
[2] = po, read-out: Percent of MAO-A inhibition, intestine
[3] = po, read-out: Percent of MAO-A inhibition, liver
[4] = sc, read-out: Percent of MAO-A inhibition, brain
[5] = sc, read-out: Percent of MAO-A inhibition, intestine

MAO-A, sequence (P21396 whole entry): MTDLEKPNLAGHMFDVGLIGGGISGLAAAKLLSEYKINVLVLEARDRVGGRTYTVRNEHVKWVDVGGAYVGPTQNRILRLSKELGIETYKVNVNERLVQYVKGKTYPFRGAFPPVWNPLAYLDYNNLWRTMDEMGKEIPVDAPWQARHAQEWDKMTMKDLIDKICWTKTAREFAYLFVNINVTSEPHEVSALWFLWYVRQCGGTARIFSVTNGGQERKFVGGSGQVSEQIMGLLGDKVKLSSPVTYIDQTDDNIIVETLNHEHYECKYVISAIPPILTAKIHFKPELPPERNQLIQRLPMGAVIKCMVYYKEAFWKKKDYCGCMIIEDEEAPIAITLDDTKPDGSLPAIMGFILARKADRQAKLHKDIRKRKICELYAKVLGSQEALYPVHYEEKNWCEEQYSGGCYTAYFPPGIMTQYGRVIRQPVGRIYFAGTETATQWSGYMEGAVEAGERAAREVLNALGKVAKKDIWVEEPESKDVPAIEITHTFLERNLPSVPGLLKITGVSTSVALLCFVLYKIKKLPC

dose dependence of MAO-A inhibition (all tissues (intestine, brain, liver)): Dose Dependent | MAO-A inhibition in the brain, ALZET pumps compared with oral administration (brain): higher | MAO-A activity, brain (brain, oral, 0.02 mg/kg/day (salt)): 3441 dpm | MAO-A activity, brain (brain, oral, 0.05 mg/kg/day (salt)): 3031 dpm | MAO-A activity, brain (brain, oral, 0.1 mg/kg/day (salt)): 2822 dpm | MAO-A activity, brain (brain, oral, 0.2 mg/kg/day (salt)): 2319 dpm | MAO-A activity, brain (brain, oral, 0.4 mg/kg/day (salt)): 1417 dpm | MAO-A activity, brain (brain, oral, 0.8 mg/kg/day (salt)): 803 dpm | MAO-A activity, brain (brain, sc ALZET pumps, 0.02 mg/kg/day (salt)): 3479 dpm | MAO-A activity, brain (brain, sc ALZET pumps, 0.05 mg/kg/day (salt)): 2974 dpm | MAO-A activity, brain (brain, sc ALZET pumps, 0.1 mg/kg/day (salt)): 2595 dpm | MAO-A activity, brain (brain, sc ALZET pumps, 0.2 mg/kg/day (salt)): 1613 dpm | MAO-A activity, brain (brain, sc ALZET pumps, 0.4 mg/kg/day (salt)): 917 dpm | MAO-A activity, brain (brain, sc ALZET pumps, 0.8 mg/kg/day (salt)): 466 dpm | MAO-A inhibition in the intestine, subcutaneous pumps compared with oral administration (intestine, 14 days, differences statistically significant): lower | MAO-A activity, intestine (intestine, oral, 0.02 mg/kg/day (salt)): 2712 dpm | MAO-A activity, intestine (intestine, oral, 0.05 mg/kg/day (salt)): 2607 dpm | MAO-A activity, intestine (intestine, oral, 0.1 mg/kg/day (salt)): 2308 dpm | MAO-A activity, intestine (intestine, oral, 0.2 mg/kg/day (salt)): 1891 dpm | MAO-A activity, intestine (intestine, oral, 0.4 mg/kg/day (salt)): 1194 dpm | MAO-A activity, intestine (intestine, oral, 0.8 mg/kg/day (salt)): 785 dpm | MAO-A activity, intestine (intestine, sc ALZET pumps, 0.02 mg/kg/day (salt)): 3199 dpm | MAO-A activity, intestine (intestine, sc ALZET pumps, 0.05 mg/kg/day (salt)): 2831 dpm | MAO-A activity, intestine (intestine, sc ALZET pumps, 0.1 mg/kg/day (salt)): 3029 dpm | MAO-A activity, intestine (intestine, sc ALZET pumps, 0.2 mg/kg/day (salt)): 2604 dpm | MAO-A activity, intestine (intestine, sc ALZET pumps, 0.4 mg/kg/day (salt)): 1937 dpm | MAO-A activity, intestine (intestine, sc ALZET pumps, 0.8 mg/kg/day (salt)): 1708 dpm | MAOA inhibitory values in the intestine (intestine, sc ALZET pumps, dose from 0.2 to 0.8 mg/kg): < 50% | MAO-A inhibition in the intestine (intestine, given by pumps): did not inhibit | MAO-A inhibition in the intestine (intestine, given orally): 26-37% | hepatic MAO-A inhibition, subcutaneous ALZET pumps compared with oral (liver): higher | MAO-A activity, liver (liver, oral, 0.02 mg/kg/day (salt)): 2127 dpm | MAO-A activity, liver (liver, oral, 0.05 mg/kg/day (salt)): 2199 dpm | MAO-A activity, liver (liver, oral, 0.1 mg/kg/day (salt)): 1963 dpm | MAO-A activity, liver (liver, oral, 0.2 mg/kg/day (salt)): 1582 dpm | MAO-A activity, liver (liver, oral, 0.4 mg/kg/day (salt)): 1058 dpm | MAO-A activity, liver (liver, oral, 0.8 mg/kg/day (salt)): 681 dpm | MAO-A activity, liver (liver, sc ALZET pumps, 0.02 mg/kg/day (salt)): 2192 dpm | MAO-A activity, liver (liver, sc ALZET pumps, 0.05 mg/kg/day (salt)): 2185 dpm | MAO-A activity, liver (liver, sc ALZET pumps, 0.1 mg/kg/day (salt)): 1930 dpm | MAO-A activity, liver (liver, sc ALZET pumps, 0.2 mg/kg/day (salt)): 646 dpm | MAO-A activity, liver (liver, sc ALZET pumps, 0.4 mg/kg/day (salt)): 27 + dpm | MAO-A activity, liver (liver, sc ALZET pumps, 0.8 mg/kg/day (salt)): 4 dpm | inhibition at 0.02 mg/kg/day [1]: 6% | inhibition at 0.05 mg/kg/day [1]: 15% | inhibition at 0.1 mg/kg/day [1]: 23% | inhibition at 0.2 mg/kg/day [1]: 37% | inhibition at 0.4 mg/kg/day [1]: 61% | inhibition at 0.8 mg/kg/day [1]: 78% | inhibition at 0.02 mg/kg/day [2]: 26% | inhibition at 0.1 mg/kg/day [2]: 37% | inhibition at 0.2 mg/kg/day [2]: 48% | inhibition at 0.8 mg/kg/day [2]: 79% | inhibition at 0.02 mg/kg/day [3]: 8% | inhibition at 0.05 mg/kg/day [3]: 5% | inhibition at 0.1 mg/kg/day [3]: 18% | inhibition at 0.2 mg/kg/day [3]: 31% | inhibition at 0.8 mg/kg/day [3]: 70% | inhibition at 0.02 mg/kg/day [4]: 8% | inhibition at 0.05 mg/kg/day [4]: 21% | inhibition at 0.1 mg/kg/day [4]: 31% | inhibition at 0.2 mg/kg/day [4]: 57% | inhibition at 0.4 mg/kg/day [4]: 76% | inhibition at 0.8 mg/kg/day [4]: 88% | inhibition at 0.02 mg/kg/day [5]: -8% | inhibition at 0.05 mg/kg/day [5]: 1% | inhibition at 0.1 mg/kg/day [5]: -3% | inhibition at 0.2 mg/kg/day [5]: 12% | inhibition at 0.4 mg/kg/day [5]: 34%
SMILES: C#CCN[C@@H]1CCc2ccccc21 [rasagiline, R(+)-N-propargyl-l-aminoindan]
